The text below walks through data of US20040106148A1, “Polypeptides” (priority 2000, published 2004).

For assay [1], the target named is T1, human TAPP1, full length (FL-TAPP1, accession AF286160), wild type, GST fusion (Homo sapiens, UniProt Q9HB21, T320A).
T1 construct: made in house; host or cells: human embryonic kidney 293 cells (pEBG-2T)
Description: Surface plasmon resonance (BIACore), GST fusion binding to phosphoinositide in supported lipid monolayer. Conditions: supported phosphatidylcholine monolayers, 1:1 binding model, NB, no binding detected, read-out: Apparent Kd. On the procedure:
(§1) Expression of GST-PH domains in human embryonic kidney 293 cells. […] For the expression of each construct, twenty 10 cm diameter dishes of 293 cells were cultured and each dish transfected with 5 μg of the pEBG-2T construct, using a modified calcium phosphate method. 36 h post-transfection, the cells were lysed in 1 ml of ice-cold Buffer A, the lysates pooled, centrifuged at 4° C. for 10 min at 13,000×g and the GST-fusion proteins were purified by affinity chromatography on glutathione-Sepharose and stored as described above.
(§2) Cloning TAPP1, TAPP2, FAPP1 and PEPP1. Full length human TAPP1, full length mouse TAPP2, partial mouse TAPP1, partial human TAPP2, and full length human and mouse FAPP1 sequences were deduced by sequencing the EST clones listed in Table 3. […] The constructs used to express full length and deletion mutants of TAPP1 and TAPP2 were generated by PCR, using as a template ESTs encoding full length human TAPP1 (accession number AI216176) and full length mouse TAPP2 (accession number AA111410). […]
(§3) Kinetic analyses of the interactions between the GST PH domain fusions and the polyphosphoinositides were made using surface plasmon resonance based procedures as described previously, with the following modifications. […] Data were analysed using the bimolecular interaction model and the global fitting feature of the BIAevaluation 3 software for several sensorgrams at different protein concentrations. […] The relative binding affinities of each protein relative to the binding of full length GST-TAPP1 to PtdIns(3,4)P2 were also calculated.
(§4) We studied the specificity and affinity of interaction of the PH domains for phosphoinositide lipids using either a “protein-lipid overlay” assay (FIG. 2) or the more quantitative surface plasmon resonance based approach (Table 2). […] For the surface plasmon resonance based assay, the apparent Kd values of the GST PH domain fusion proteins resulting from their interaction with a supported lipid monolayer containing a low mole fraction of phosphoinositide, was determined (Table 2).
For orientation: SPR reads the build-up and loss of mass on a sensor chip optically.

In assay [2] the target is T2, mouse TAPP2, full length (FL-TAPP2, accession AF286161), wild type, GST fusion (Mus musculus, UniProt Q9ERS5).
T2 construct: made in house; host or cells: human embryonic kidney 293 cells (pEBG-2T)
The assay is described as above. The conditions noted are these: supported phosphatidylcholine monolayers, 1:1 binding model, NB, no binding detected, read-out: Apparent Kd. The procedure: as §1, §2, §3, §4

The target of assay [3] is T3, human TAPP1, full length, mutant R28L (FL-TAPP1 [R28L]), GST fusion (Homo sapiens, UniProt Q9HB21, R28L/T320A).
T3 construct: wild type and mutant forms of full length (FL); made in house; host or cells: human embryonic kidney 293 cells (pEBG-2T)
The assay is described as above. The conditions noted are these: supported phosphatidylcholine monolayers, 1:1 binding model, read-out: Apparent Kd. The procedure: as §1, §2, §3, §4

In the next assay the test system is GST-DAPP1. Conditions: control; cited from earlier work.
Assay [4] deals with mouse TAPP2, full length, wild type, GST fusion (Mus musculus, UniProt Q9ERS5). Description: Protein-lipid overlay. The assay is classed as binding. The conditions noted are these: FIG. 4C and Table 2. On the procedure: (§5) FIG. 4. Comparison of the phosphoinositide binding properties of the N-terminal and C-terminal PH domains of TAPP1 and TAPP2. The ability of wild type and mutant forms of full length (FL) and isolated N-terminal (NT) and C-terminal (CT) PH domains of TAPP1 and TAPP2 GST-fusion proteins to interact with phosphoinositides were analysed using a protein-lipid overlay. Serial dilutions of the indicated phosphoinositides (100 pmol, 50 pmol, 25 pmol, 12.5 pmol, 6.3 pmol, 3.1 pmol and 1.6 pmol) were spotted onto a nitrocellulose membrane which was then incubated with the indicated purified GST fusion proteins. The membranes were washed and the GST-fusion proteins bound to the membrane by virtue of their interactions with lipid were detected using a GST antibody. A representative experiment of three is shown. The isolated N-terminal PH domain of human TAPP1 comprises residues 1 to 147, the isolated C-terminal PH domain of human TAPP1 comprises residues 95 to 404, the isolated N-terminal PH domain of mouse TAPP2 comprises residues 1 to 131 and the isolated C-terminal PH of mouse TAPP2 comprises residues 174 to 425.
(§6) Protein-Lipid overlay. To assess the phosphoinositide binding properties of each PH domain, a protein-lipid overlay assay was performed using the GST fusion proteins as described previously. Briefly, 1 μl of lipid solution containing 1-100 pmol of phospholipids dissolved in a mixture of choroform:methanol:water (1:2:0.8) was spotted onto Hybond-C extra membrane and allowed to dry at room temperature for 1 h. The membrane was blocked in 3% (by mass) fatty acid-free BSA in TBST (50 mM Tris/HCl pH 7.5, 150 mM NaCl and 0.1% Tween-20 (by vol) for lh. The membrane was then incubated overnight at 4° C. with gentle agitation in the same solution containing 0.2 μg/ml of the indicated GST fusion protein. The membranes were washed 6 times over 30 min in TBST and then incubated for 1 h with 1/1000 dilution of anti-GST monoclonal antibody (Sigma). The membranes were washed as before, then incubated for 1 h with 1/5000 dilution of anti-mouse-HRP conjugate (Pierce). Finally, the membranes were washed 12 times over 1 h in TBST and the GST-fusion protein bound to the membrane by virtue of its interaction with phospholipid was detected by enhanced chemiluminescence.

Assay [5] has as its target human TAPP1 C-terminal PH domain, mutant W281L (Trp281 to Leu), GST fusion (Homo sapiens, UniProt Q9HB21, W280L). Description: Protein-lipid overlay. The assay is classed as binding. Conditions: FIG. 4B. On the procedure: as §5, §6

Several values for one entry are separate records, joined by “and”; a condition that tells them apart may be missing. Equal values may be shown once.

T1 sequence (Q9HB21 whole entry T320A, the tested form may be a part): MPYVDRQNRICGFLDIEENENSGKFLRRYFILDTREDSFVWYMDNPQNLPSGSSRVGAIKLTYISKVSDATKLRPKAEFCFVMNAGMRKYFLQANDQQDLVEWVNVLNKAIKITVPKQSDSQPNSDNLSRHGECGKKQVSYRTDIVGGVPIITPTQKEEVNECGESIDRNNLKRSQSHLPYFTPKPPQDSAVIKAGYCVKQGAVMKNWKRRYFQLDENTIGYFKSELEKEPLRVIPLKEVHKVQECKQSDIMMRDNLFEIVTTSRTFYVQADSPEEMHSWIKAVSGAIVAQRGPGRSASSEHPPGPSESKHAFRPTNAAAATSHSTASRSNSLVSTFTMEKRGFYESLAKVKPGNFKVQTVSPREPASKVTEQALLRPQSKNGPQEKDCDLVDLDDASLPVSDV
T3 sequence (Q9HB21 whole entry R28L/T320A, the tested form may be a part): as the sequence (Q9HB21 whole entry T320A, the tested form may be a part) above, with R28L counted along it
mouse TAPP2, full length, wild type, GST fusion, sequence (Q9ERS5 whole entry, the tested form may be a part): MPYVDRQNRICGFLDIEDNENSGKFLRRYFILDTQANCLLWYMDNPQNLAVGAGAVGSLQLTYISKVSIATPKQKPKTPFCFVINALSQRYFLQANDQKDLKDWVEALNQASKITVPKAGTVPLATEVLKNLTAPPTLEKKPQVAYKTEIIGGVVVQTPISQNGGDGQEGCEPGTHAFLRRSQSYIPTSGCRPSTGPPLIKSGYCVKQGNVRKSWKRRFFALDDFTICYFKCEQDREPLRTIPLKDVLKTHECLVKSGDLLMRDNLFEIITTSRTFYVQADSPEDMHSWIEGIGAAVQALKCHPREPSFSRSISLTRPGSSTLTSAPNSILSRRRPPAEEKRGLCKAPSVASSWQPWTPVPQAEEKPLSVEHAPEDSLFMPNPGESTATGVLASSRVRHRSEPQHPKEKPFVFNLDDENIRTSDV
T2 sequence (Q9ERS5 whole entry, the tested form may be a part): as above
human TAPP1 C-terminal PH domain, mutant W281L (Trp281 to Leu), GST fusion, sequence (Q9HB21 95-404 W280L): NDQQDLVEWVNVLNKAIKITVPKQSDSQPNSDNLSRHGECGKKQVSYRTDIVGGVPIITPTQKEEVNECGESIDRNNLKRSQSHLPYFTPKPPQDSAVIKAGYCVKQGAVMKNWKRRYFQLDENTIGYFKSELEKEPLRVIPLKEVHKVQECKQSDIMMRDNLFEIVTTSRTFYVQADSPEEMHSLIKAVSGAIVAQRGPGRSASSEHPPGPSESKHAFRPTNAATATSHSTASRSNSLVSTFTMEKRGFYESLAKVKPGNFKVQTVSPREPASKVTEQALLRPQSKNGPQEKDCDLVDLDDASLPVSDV

On to `CCCCCCCCCCCCCCCC(=O)OC[C@H](COP(=O)(O)O[C@H]1[C@H](O)[C@@H](O)[C@H](OP(=O)(O)O)[C@@H](OP(=O)(O)O)[C@H]1O)OC(=O)CCCCCCCCCCCCCCC` [PtdIns(3,4)P2], for which the Kd was 5 nM and ~5 nM in assay [1]; 30 nM in assay [2]; 28 nM in assay [3]. Besides, the values for the phosphoinositide binding result (with GST-DAPP1; in assay [4]) were “binds” and “interacted specifically”, respectively. Also, the “effect of mutation on interaction” value in assay [5] was “abolished the interaction”.
